Activity calls are given as the source filed them.
Columns and labels:
[1] = molecular target: T1, Sentrin-specific protease 8 (Homo sapiens, UniProt Q96LD8); type: functional;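 also: luminescence read-out of SENP8 inhibition, dose-response confirmation following an ultra-high-throughput screen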
T1 sequence (Q96LD8 whole entry): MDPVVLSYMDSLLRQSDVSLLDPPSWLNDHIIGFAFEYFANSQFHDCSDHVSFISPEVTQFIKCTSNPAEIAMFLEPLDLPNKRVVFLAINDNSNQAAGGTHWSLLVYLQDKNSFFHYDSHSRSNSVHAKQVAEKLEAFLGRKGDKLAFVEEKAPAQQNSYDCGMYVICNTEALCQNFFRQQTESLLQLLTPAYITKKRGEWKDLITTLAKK

[2] = Luminescence Cell-Based Dose Confirmation HTS to Identify Activators of 5'UTR Stem-Loop Driven Alpha-Synuclein mRNA Translation in H4 Neuroglioblastoma Cells. [Related pubchem assays: 1829 (Project Summary), 1814 (Primary HTS)]; type: functional
Caspase-3 = molecular target: T2, Caspase-3 (Homo sapiens, UniProt P42574); type: functional;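 also: Dose-response selectivity test against caspase-3 for candidate inhibitors of sentrin-specific proteases (SENPs)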
T2 sequence (P42574 whole entry): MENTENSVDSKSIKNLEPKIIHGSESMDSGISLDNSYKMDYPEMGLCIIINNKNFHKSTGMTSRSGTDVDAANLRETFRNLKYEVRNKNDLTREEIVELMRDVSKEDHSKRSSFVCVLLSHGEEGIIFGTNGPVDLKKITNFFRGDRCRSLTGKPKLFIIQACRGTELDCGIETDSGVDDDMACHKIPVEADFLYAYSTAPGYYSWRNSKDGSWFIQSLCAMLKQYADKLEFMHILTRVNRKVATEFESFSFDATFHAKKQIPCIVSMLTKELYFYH

H4 = experiment: Luminescence Cell-Based Dose Response HTS to Identify Activators of 5'UTR Stem-Loop Driven Prion Protein mRNA Translation in H4 Neuroglioblastoma Cells. [Related pubchem assays: 1829 (Project Summary), 1814 (Primary HTS)]; type: functional; conditions: Homo sapiens
[3] = molecular target: T3, Sentrin-specific protease 6 (Homo sapiens, UniProt Q9GZR1); type: functional;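 also: Luminescence-based dose-response confirmatory assay of SENP6 inhibition, following up an ultra-high-throughput screen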
T3 sequence (Q9GZR1 whole entry): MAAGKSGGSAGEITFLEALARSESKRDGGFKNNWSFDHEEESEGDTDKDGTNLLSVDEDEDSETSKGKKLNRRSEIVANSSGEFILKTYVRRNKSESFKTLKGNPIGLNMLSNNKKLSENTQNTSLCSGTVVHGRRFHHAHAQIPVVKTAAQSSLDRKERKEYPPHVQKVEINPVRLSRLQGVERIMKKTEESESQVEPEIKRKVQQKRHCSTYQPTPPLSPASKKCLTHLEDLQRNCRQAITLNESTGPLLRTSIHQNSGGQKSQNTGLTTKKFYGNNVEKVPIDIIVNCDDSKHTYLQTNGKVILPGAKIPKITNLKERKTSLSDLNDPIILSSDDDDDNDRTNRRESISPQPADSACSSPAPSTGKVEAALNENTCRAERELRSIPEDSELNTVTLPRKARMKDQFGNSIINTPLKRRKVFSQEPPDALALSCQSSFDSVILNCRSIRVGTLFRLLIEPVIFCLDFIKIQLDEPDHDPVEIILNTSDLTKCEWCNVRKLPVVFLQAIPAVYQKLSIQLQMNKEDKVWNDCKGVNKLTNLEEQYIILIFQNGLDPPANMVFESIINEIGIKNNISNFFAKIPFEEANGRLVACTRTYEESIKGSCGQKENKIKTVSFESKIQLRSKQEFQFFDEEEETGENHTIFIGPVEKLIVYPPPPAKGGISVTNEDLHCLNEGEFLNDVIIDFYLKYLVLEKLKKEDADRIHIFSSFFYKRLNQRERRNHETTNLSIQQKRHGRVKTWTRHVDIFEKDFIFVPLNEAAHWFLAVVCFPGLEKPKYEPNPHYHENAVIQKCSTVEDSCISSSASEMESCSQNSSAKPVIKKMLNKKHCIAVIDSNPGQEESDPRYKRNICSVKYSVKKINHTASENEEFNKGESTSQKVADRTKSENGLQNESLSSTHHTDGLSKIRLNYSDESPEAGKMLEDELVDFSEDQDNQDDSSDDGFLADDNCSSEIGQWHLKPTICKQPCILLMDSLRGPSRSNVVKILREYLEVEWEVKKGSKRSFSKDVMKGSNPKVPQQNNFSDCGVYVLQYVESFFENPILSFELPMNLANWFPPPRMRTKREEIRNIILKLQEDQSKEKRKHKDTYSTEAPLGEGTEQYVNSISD

[4] = molecular target: T4, Sentrin-specific protease 7 (Homo sapiens, UniProt Q9BQF6); type: functional;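 also: Luminescence-based dose-response confirmation of ultra-high-throughput screening hits, measuring inhibition of SENP7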
T4 sequence (Q9BQF6 whole entry): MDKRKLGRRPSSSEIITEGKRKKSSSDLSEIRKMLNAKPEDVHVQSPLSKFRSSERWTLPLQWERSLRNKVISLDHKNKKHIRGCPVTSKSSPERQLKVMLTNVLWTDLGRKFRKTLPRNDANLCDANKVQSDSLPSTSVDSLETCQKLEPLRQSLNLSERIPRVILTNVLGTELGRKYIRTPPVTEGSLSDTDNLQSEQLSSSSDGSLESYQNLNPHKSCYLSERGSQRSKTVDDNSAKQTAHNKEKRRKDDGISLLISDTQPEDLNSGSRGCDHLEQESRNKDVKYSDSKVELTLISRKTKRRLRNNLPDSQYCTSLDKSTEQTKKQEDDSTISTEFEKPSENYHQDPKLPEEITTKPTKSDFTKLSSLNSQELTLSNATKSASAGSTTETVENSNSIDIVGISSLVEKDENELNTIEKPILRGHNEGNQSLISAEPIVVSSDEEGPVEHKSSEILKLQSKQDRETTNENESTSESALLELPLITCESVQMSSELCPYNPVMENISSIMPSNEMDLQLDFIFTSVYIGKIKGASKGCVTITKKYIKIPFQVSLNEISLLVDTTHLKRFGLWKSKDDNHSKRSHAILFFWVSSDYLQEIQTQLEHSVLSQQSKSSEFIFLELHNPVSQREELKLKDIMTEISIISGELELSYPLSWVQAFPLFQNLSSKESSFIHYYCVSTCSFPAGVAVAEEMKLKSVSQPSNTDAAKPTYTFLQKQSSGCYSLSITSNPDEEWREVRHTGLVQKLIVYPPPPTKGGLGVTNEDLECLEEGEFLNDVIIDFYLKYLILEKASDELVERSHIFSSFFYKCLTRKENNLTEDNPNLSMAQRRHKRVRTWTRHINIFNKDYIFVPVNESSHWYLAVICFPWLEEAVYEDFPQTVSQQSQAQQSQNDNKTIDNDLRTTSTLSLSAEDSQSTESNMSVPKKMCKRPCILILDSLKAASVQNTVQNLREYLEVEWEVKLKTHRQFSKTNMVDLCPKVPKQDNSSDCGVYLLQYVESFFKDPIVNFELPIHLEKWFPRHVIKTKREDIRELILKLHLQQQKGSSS

[5] = Luminescence Cell-Based Dose Response HTS to Identify Activators of Luciferase Translation or Activity in H4 […] Cells. [Related pubchem assays: 1829 (Project Summary), 1814 (Primary HTS)]; type: functional
Streptococcus = experiment: GAS UMAA2166 growth inhibition – luminescence, BacTiterGlo, counter-screen for streptokinase expression inhibitor project, dose response (AID 1915); type: functional, organism-based;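 also: potency for reduction of bacterial viability or growth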
Cytochrome P450 3A4 = Cytochrome P450 3A4 (Homo sapiens, UniProt P08684);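 also: CYP3A4 tested as one member of a cytochrome P450 panel screen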
[6] = system: Streptococcus sp. 'group A'; experiment: Streptococcus pyogenes SK(-)GAS viability under kanamycin – luminescence, BacTiterGlo, confirmation, counter-screen for streptokinase expression inhibitor project, dose response (AID 1900); type: functional, organism-based
Streptokinase A = molecular target: T5, Streptokinase A (Streptococcus pyogenes serotype M1, UniProt P10520); experiment: viability-normalized secreted streptokinase activity reduction – plasminogen activation absorbance, OD405, dose response (AID 1914); type: functional, Streptococcus pyogenes M1 GAS;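 also: secreted streptokinase activity via plasminogen activation per viability signal from cell pellet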
T5 sequence (P10520 whole entry): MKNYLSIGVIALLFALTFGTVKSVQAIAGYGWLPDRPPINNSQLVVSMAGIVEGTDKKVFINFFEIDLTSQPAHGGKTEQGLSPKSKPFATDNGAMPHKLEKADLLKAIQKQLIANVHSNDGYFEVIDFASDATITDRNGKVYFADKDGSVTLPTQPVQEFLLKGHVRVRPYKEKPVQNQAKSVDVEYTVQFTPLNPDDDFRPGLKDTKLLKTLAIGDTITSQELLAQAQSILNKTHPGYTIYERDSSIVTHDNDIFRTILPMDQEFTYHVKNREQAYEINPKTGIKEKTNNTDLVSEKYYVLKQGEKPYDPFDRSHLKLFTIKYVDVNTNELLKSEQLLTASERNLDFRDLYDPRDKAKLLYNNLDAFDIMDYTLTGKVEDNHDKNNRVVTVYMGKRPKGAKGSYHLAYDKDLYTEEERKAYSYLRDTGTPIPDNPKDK

Cytochrome P450 2D6 = Cytochrome P450 2D6 (Homo sapiens, UniProt P10635);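 also: CYP2D6 member of a cytochrome P450 panel assay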
[7] = DRD fibroblast viability loss – cell-based, non-viral oncogenic, luminescence, dose response (AID 1934); type: functional; conditions: Homo sapiens
BJ [8] = experiment: cells; type: functional, cell-based, Homo sapiens; conditions: Homo sapiens, BJ
BJ [9] = experiment: BJ-TERT fibroblast viability loss – cell-based, RAS-independent, luminescence, dose response (AID 1933); type: functional; conditions: Homo sapiens
BJ [10] = experiment: BJ-TERT-LT-ST fibroblast viability loss – cell-based, RAS-independent, luminescence, dose response (AID 1935); type: functional; conditions: Homo sapiens;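 also: BJ fibroblasts immortalized with TERT plus LT and ST oncogenes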
[11] = molecular target: T6, Polyadenylate-binding protein 1 (Homo sapiens, UniProt P11940); experiment: MLLE binding blockers, Cy5 peptide tracer – biochemical, fluorescence polarization, Cy5-PAM2 peptide, secondary, miRNA deadenylation inhibitor project, dose response (AID 602260); type: functional; conditions: read-out: IC50_Mean
[12] = molecular target: T6, Polyadenylate-binding protein 1; experiment: MLLE domain peptide-binding blockers, IC50 – biochemical, fluorescence polarization, FITC-PAM2 peptide, dose response (AID 602259); type: functional; conditions: read-out: IC50_Mean

T6 sequence (P11940 whole entry, the tested form may be a part): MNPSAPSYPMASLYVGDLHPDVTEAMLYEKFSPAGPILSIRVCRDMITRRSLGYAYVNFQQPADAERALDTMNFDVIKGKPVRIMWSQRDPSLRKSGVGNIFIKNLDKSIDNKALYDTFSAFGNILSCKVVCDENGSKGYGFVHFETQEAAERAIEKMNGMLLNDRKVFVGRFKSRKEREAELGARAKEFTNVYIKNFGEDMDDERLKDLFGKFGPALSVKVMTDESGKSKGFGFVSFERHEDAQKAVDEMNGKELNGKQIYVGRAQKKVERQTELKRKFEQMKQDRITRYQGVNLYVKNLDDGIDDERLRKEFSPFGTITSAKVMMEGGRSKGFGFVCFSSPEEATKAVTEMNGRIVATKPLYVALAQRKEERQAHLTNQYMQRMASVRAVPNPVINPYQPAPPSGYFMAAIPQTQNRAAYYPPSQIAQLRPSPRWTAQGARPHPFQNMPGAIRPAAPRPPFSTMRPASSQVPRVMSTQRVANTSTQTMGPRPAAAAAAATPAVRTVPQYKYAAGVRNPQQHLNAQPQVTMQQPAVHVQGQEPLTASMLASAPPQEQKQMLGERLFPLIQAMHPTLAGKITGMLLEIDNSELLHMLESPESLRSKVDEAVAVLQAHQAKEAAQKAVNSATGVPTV
Cytochrome P450 2D6, sequence (P10635 whole entry): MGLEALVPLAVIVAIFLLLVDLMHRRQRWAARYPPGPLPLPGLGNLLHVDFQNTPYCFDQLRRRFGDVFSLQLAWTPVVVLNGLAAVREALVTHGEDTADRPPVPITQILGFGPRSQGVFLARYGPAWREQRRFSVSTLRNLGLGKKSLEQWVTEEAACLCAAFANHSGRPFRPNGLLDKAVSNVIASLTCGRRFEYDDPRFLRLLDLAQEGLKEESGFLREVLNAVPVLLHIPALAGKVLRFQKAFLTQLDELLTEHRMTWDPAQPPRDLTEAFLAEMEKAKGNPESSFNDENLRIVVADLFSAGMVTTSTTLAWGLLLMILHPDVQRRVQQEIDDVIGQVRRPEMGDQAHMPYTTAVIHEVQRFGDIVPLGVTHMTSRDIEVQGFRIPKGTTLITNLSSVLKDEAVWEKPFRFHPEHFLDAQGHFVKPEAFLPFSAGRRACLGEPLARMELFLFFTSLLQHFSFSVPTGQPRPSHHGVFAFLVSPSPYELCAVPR
Cytochrome P450 3A4, sequence (P08684 whole entry): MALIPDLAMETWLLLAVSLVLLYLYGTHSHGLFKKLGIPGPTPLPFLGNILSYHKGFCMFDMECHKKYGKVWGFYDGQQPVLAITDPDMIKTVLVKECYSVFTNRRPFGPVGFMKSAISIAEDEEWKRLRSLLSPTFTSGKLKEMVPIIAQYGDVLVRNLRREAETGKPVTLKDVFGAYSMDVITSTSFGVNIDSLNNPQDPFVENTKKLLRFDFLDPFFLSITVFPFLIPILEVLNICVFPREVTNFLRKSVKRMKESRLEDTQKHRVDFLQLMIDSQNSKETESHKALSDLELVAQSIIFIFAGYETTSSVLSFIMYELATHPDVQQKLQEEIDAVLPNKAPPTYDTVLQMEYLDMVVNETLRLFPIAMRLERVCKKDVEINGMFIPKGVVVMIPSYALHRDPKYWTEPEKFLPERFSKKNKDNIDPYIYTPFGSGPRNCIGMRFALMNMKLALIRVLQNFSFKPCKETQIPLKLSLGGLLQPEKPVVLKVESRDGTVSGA

## CCSc1nsc(NC(=O)Nc2ccccc2F)n1
[1]
  IC50: 6.84 µM (active)
[2]
  EC50: 283 nM (active)
Caspase-3
  IC50: 29 µM (active)
H4
  EC50: 16.1 µM (inconclusive)
[3]
  IC50: > 100 µM (inactive)
[4]
  IC50: 5.95 µM (active)
[5]
  EC50: 20.4 µM (active)

## N=C1/C(=C/c2cccs2)C(=O)N=C2SN=C(SCc3ccccc3)N12
[1]
  IC50: 32.6 µM (active)
Caspase-3
  IC50: 50.3 µM (active)
Streptococcus
  EC50: 30 µM (active)
[3]
  IC50: 11.1 µM (active)
Cytochrome P450 3A4
  AC50: 14.1 µM (inconclusive)
[6]
  EC50: 3.65 µM (active)
Streptokinase A
  EC50: 5.78 µM (active)
[4]
  IC50: 27.7 µM (active)
Cytochrome P450 2D6
  AC50: 25.1 µM (inconclusive)

## O=C(Nc1ccc(Cl)cc1)Nc1nccs1
[1]
  IC50: 15.5 µM (active)
Caspase-3
  IC50: 21.7 µM (active)
[3]
  IC50: 14.6 µM (active)
[4]
  IC50: 7.33 µM (active)
Cytochrome P450 2D6
  AC50: 31.6 µM (inconclusive)

## CCOC(=O)c1ccc(Nc2sc(C(=O)c3cccc([N+](=O)[O-])c3)c(N)c2C#N)cc1
[7]
  EC50: 136 µM (inconclusive)
BJ [8]
  EC50: 92.4 µM (inconclusive)
BJ [9]
  EC50: > 150 µM (not active)
BJ [10]
  EC50: 97.4 µM (active)

## O=CNc1ccc2c3c(cccc13)-c1ccccc1-2
[11]
  IC50: 33.1 µM (inactive)
[12]
  IC50: 37.1 µM (inactive)

## CCCc1nc2ccc(Cl)cn2c1Cc1ccsc1
[11]
  IC50: 51.2 µM (inactive)
[12]
  IC50: 59.3 µM (inactive)

## Nc1[nH]n(-c2ccccc2)c(=O)c1N=Nc1ccccc1
[1]
  IC50: > 100 µM (inactive)
Caspase-3
  IC50: 20.2 µM (active)
[3]
  IC50: > 100 µM (inactive)
[4]
  IC50: 4.47 µM (active)

Source: ChEMBL document CHEMBL1201862, “PubChem BioAssay data set” (2004)
